Values of other authors, collected in patent US9439866B2, “Trazodone composition for once a day administration” (priority 2005, dated 2016).
“Also recorded” adds a separate entry of the source.

SMILES: Cl.O=c1n(CCCN2CCN(c3cccc(Cl)c3)CC2)nc2ccccn12 [trazodone]
- solubility below its pKa (acid media (stomach and upper intestines), pH below pKa): highly soluble
- solubility above its pKa (neutral and basic conditions of the lower intestine, pH above pKa): very low; also recorded: poorly soluble
